{"source": "patent US9284283B2", "about": "“Macrocyclic compounds for modulating IL-17” (ENSEMBLE THERAPEUTICS CORPORATION, priority 2012, dated 2016)"}
{"test_system": "IL-17A induced secretion of IL-6 in primary human RASF cells", "experiment": "Inhibition of IL17A induced secretion of IL6 in human rheumatoid arthritis synovial fibroblast (RASF) cells", "format": "cell-based", "conditions": "Homo sapiens, Fibroblast", "outline": "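Primary RASF cells (passage 2-8) stimulated 20 h at 37 °C with rhIL-17A (30 ng/mL) pre-incubated 1 h with compound (final 0.03-25 μM, 0.25% DMSO). Supernatant IL-6 measured by ELISA, normalized to WST1 viability; triplicates.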", "units": {"IC50": "nM"}}
{"molecule": "CC1(C)CC(=O)NCCCCCNC(=O)CNC(=O)[C@@H](Cc2ccc(NC(=O)[C@@H](NC(=O)Cc3ccccc3)C3CCCCC3)cc2)NC(=O)C1", "note": "[Compound 251]", "IC50": "1000 to 10000"}
{"molecule": "C[C@H]1NC(=O)[C@@H](Cc2ccc(NC(=O)[C@H](Cc3ccccc3Cl)NC(=O)Cc3ccccc3)cc2)NC(=O)CC2(CCCC2)CC(=O)N[C@H](C(=O)O)CCCCNC1=O", "note": "[Compound 367]", "IC50": "< 100"}
{"molecule": "O=C1CC2(CCCC2)CC(=O)N[C@H](Cc2ccc(NC(=O)[C@H](Cc3ccccc3Cl)NC(=O)Cc3ccc(O)cc3)cc2)C(=O)NCCCCCCCCN1", "note": "[Compound 263]", "IC50": "1000 to 10000"}
{"molecule": "O=C1CC2(CCCC2)CC(=O)N[C@H](Cc2ccc(NC(=O)[C@@H](NC(=O)Cc3ccc(CO)cc3)C3CCCCC3)cc2)C(=O)N[C@H](Cc2ccccc2)C(=O)NCCCCCN1", "note": "[Compound 336]", "IC50": "100 to 1000"}
{"molecule": "O=C1CNC(=O)[C@@H](Cc2ccc(NC(=O)[C@H](CC3CCC3)NC(=O)Cc3ccccc3)cc2)NC(=O)CC2(CCCC2)CC(=O)NCCCCCN1", "note": "[Compound 246]", "IC50": "> 10000"}
{"molecule": "C[C@H]1NC(=O)[C@@H](Cc2ccc(NC(=O)[C@@H](NC(=O)Cc3ccccc3)C3CCCCC3)cc2)NC(=O)CC2(CCCC2)CC(=O)NCCCCCNC1=O", "note": "[Compound 342]", "IC50": "100 to 1000"}
{"molecule": "C[C@H]1NC(=O)[C@@H](Cc2ccc(NC(=O)[C@@H](NC(=O)c3cccnc3)C3CCCCC3)cc2)NC(=O)CC2(CCCC2)CC(=O)NCCCCCNC1=O", "note": "[Compound 361]", "IC50": "1000 to 10000"}
{"molecule": "O=C1CNC(=O)[C@@H](Cc2ccc(NC(=O)[C@@H](NC(=O)Cc3ccccc3)C3CCCCC3)cc2)NC(=O)CC2(CCCC2)CC(=O)N[C@H](C(=O)O)CCCCN1", "note": "[Compound 316]", "IC50": "100 to 1000"}
{"molecule": "CC1(C)CC(=O)NCCCCCNC(=O)CNC(=O)[C@@H](Cc2ccc(NC(=O)[C@@H](NC(=O)c3cccnc3)C3CCCCC3)cc2)NC(=O)C1", "note": "[Compound 254]", "IC50": "> 10000"}
{"molecule": "CC(=O)N[C@@H](Cc1ccccc1Cl)C(=O)Nc1ccc(C[C@H]2NC(=O)CC3(CCCC3)CC(=O)N[C@H](C(=O)O)CCCCNC(=O)CNC2=O)cc1", "note": "[Compound 264]", "IC50": "100 to 1000"}
{"molecule": "CNC(=O)N[C@@H](Cc1ccccc1Cl)C(=O)Nc1ccc(C[C@H]2NC(=O)CC3(CCCC3)CC(=O)NCCCCCNC(=O)CNC2=O)cc1", "note": "[Compound 273]", "IC50": "1000 to 10000"}
{"molecule": "O=C1CNC(=O)[C@@H](Cc2ccc(NC(=O)[C@H](CC3CCCCC3)NC(=O)Cc3ccccc3)cc2)NC(=O)CC2(CCCC2)CC(=O)NCCCCCN1", "note": "[Compound 293]", "IC50": "1000 to 10000"}
{"molecule": "O=C1CNC(=O)[C@@H](Cc2ccc(NC(=O)[C@H](Cc3ccccc3Cl)NC(=O)Cc3ccc(F)cc3)cc2)NC(=O)CC2(CCCC2)CC(=O)NCCCCCN1", "note": "[Compound 305]", "IC50": "100 to 1000"}
{"molecule": "CN(C)C(=O)N[C@@H](Cc1ccccc1Cl)C(=O)Nc1ccc(C[C@H]2NC(=O)CC3(CCCC3)CC(=O)NCCCCCNC(=O)CNC2=O)cc1", "note": "[Compound 274]", "IC50": "100 to 1000"}
{"molecule": "O=C1CNC(=O)[C@@H](Cc2ccc(NC(=O)[C@H](Cc3ccccc3Cl)NC(=O)CC3CCCCC3)cc2)NC(=O)CC2(CCCC2)CC(=O)NCCCCCN1", "note": "[Compound 236]", "IC50": "1000 to 10000"}
{"molecule": "CN1CCCCCNC(=O)CNC(=O)[C@@H](Cc2ccc(NC(=O)[C@@H](NC(=O)Cc3ccccc3)C3CCCCC3)cc2)NC(=O)CC2(CCCC2)CC1=O", "note": "[Compound 332]", "IC50": "1000 to 10000"}
{"target": "T1, recombinant human IL17a (binding to its receptor IL17R) (Homo sapiens, UniProt Q16552)", "T1 construct": "purchased R&D Systems 317-ILB (IL17a); 177-IR (IL17R/Fc)", "T1 sequence (Q16552 20-155 limits assumed)": "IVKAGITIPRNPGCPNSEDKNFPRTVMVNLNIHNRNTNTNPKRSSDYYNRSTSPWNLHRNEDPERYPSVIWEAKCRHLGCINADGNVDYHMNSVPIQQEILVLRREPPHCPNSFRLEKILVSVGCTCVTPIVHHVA", "experiment": "IL-17 competition ELISA I (IL17a coated, IL17R/Fc binding)", "conditions": "not given", "outline": "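Plates coated with 20 nM recombinant human IL17a received compound dilutions and 12 nM IL17R/Fc (final) for 30 min at room temperature. Bound receptor was detected with HRP anti-human Fc and TMB, read at 450 nm. IC50 came from a 4-parameter logistic fit between no-competitor and blank controls.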", "units": {"IC50": "nM"}}
{"molecule": "CC1(C)CC(=O)NCCCCCNC(=O)CNC(=O)[C@@H](Cc2ccc(NC(=O)[C@@H](NC(=O)Cc3ccccc3)C3CCCCC3)cc2)NC(=O)C1", "note": "[Compound 251]", "IC50": "100 to 1000"}
{"molecule": "C[C@H]1NC(=O)[C@@H](Cc2ccc(NC(=O)[C@H](Cc3ccccc3Cl)NC(=O)Cc3ccccc3)cc2)NC(=O)CC2(CCCC2)CC(=O)N[C@H](C(=O)O)CCCCNC1=O", "note": "[Compound 367]", "IC50": "< 100"}
{"molecule": "O=C1CC2(CCCC2)CC(=O)N[C@H](Cc2ccc(NC(=O)[C@H](Cc3ccccc3Cl)NC(=O)Cc3ccc(O)cc3)cc2)C(=O)NCCCCCCCCN1", "note": "[Compound 263]", "IC50": "< 100"}
{"molecule": "O=C1CC2(CCCC2)CC(=O)N[C@H](Cc2ccc(NC(=O)[C@@H](NC(=O)Cc3ccc(CO)cc3)C3CCCCC3)cc2)C(=O)N[C@H](Cc2ccccc2)C(=O)NCCCCCN1", "note": "[Compound 336]", "IC50": "100 to 1000"}
{"molecule": "O=C1CNC(=O)[C@@H](Cc2ccc(NC(=O)[C@H](CC3CCC3)NC(=O)Cc3ccccc3)cc2)NC(=O)CC2(CCCC2)CC(=O)NCCCCCN1", "note": "[Compound 246]", "IC50": "< 100"}
{"molecule": "C[C@H]1NC(=O)[C@@H](Cc2ccc(NC(=O)[C@@H](NC(=O)Cc3ccccc3)C3CCCCC3)cc2)NC(=O)CC2(CCCC2)CC(=O)NCCCCCNC1=O", "note": "[Compound 342]", "IC50": "100 to 1000"}
{"molecule": "C[C@H]1NC(=O)[C@@H](Cc2ccc(NC(=O)[C@@H](NC(=O)c3cccnc3)C3CCCCC3)cc2)NC(=O)CC2(CCCC2)CC(=O)NCCCCCNC1=O", "note": "[Compound 361]", "IC50": "100 to 1000"}
{"molecule": "O=C1CNC(=O)[C@@H](Cc2ccc(NC(=O)[C@@H](NC(=O)Cc3ccccc3)C3CCCCC3)cc2)NC(=O)CC2(CCCC2)CC(=O)N[C@H](C(=O)O)CCCCN1", "note": "[Compound 316]", "IC50": "< 100"}
{"molecule": "CC1(C)CC(=O)NCCCCCNC(=O)CNC(=O)[C@@H](Cc2ccc(NC(=O)[C@@H](NC(=O)c3cccnc3)C3CCCCC3)cc2)NC(=O)C1", "note": "[Compound 254]", "IC50": "1000 to 10000"}
{"molecule": "CC(=O)N[C@@H](Cc1ccccc1Cl)C(=O)Nc1ccc(C[C@H]2NC(=O)CC3(CCCC3)CC(=O)N[C@H](C(=O)O)CCCCNC(=O)CNC2=O)cc1", "note": "[Compound 264]", "IC50": "< 100"}
{"molecule": "CNC(=O)N[C@@H](Cc1ccccc1Cl)C(=O)Nc1ccc(C[C@H]2NC(=O)CC3(CCCC3)CC(=O)NCCCCCNC(=O)CNC2=O)cc1", "note": "[Compound 273]", "IC50": "100 to 1000"}
{"molecule": "O=C1CNC(=O)[C@@H](Cc2ccc(NC(=O)[C@H](CC3CCCCC3)NC(=O)Cc3ccccc3)cc2)NC(=O)CC2(CCCC2)CC(=O)NCCCCCN1", "note": "[Compound 293]", "IC50": "100 to 1000"}
{"molecule": "O=C1CNC(=O)[C@@H](Cc2ccc(NC(=O)[C@H](Cc3ccccc3Cl)NC(=O)Cc3ccc(F)cc3)cc2)NC(=O)CC2(CCCC2)CC(=O)NCCCCCN1", "note": "[Compound 305]", "IC50": "< 100"}
{"molecule": "CN(C)C(=O)N[C@@H](Cc1ccccc1Cl)C(=O)Nc1ccc(C[C@H]2NC(=O)CC3(CCCC3)CC(=O)NCCCCCNC(=O)CNC2=O)cc1", "note": "[Compound 274]", "IC50": "< 100"}
{"molecule": "O=C1CNC(=O)[C@@H](Cc2ccc(NC(=O)[C@H](Cc3ccccc3Cl)NC(=O)CC3CCCCC3)cc2)NC(=O)CC2(CCCC2)CC(=O)NCCCCCN1", "note": "[Compound 236]", "IC50": "< 100"}
{"molecule": "CN1CCCCCNC(=O)CNC(=O)[C@@H](Cc2ccc(NC(=O)[C@@H](NC(=O)Cc3ccccc3)C3CCCCC3)cc2)NC(=O)CC2(CCCC2)CC1=O", "note": "[Compound 332]", "IC50": "100 to 1000"}
{"target": "T2, biotinylated human IL-17 (binding to IL17R/Fc) (Homo sapiens, UniProt Q16552)", "T2 construct": "purchased R&D Systems 317-ILB (IL-17, biotinylated); 177-IR (IL17R/Fc)", "T2 sequence (Q16552 20-155 limits assumed)": "T1 sequence (Q16552 20-155 limits assumed)", "experiment": "IL-17 competition ELISA II (captured IL17R/Fc, biotinylated IL-17)", "conditions": "not given", "outline": "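Anti-human IgG-coated plates captured IL17R/Fc (10 nM), then compound (5-fold dilutions from 1 μM) and biotinylated human IL-17 (20 nM stock) were added for 30 min at room temperature in PBST. Bound IL-17 detected by streptavidin-HRP/TMB at 450 nm. IC50 from 4-parameter logistic fit between no-competitor and blank controls.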", "units": {"IC50": "nM"}}
{"molecule": "C[C@H]1NC(=O)[C@@H](Cc2ccc(NC(=O)[C@H](Cc3ccccc3Cl)NC(=O)Cc3ccccc3)cc2)NC(=O)CC2(CCCC2)CC(=O)N[C@H](C(=O)O)CCCCNC1=O", "note": "[Compound 367]", "IC50": "< 100"}
{"molecule": "O=C1CC2(CCCC2)CC(=O)N[C@H](Cc2ccc(NC(=O)[C@@H](NC(=O)Cc3ccc(CO)cc3)C3CCCCC3)cc2)C(=O)N[C@H](Cc2ccccc2)C(=O)NCCCCCN1", "note": "[Compound 336]", "IC50": "< 100"}
{"molecule": "O=C1CNC(=O)[C@@H](Cc2ccc(NC(=O)[C@H](CC3CCC3)NC(=O)Cc3ccccc3)cc2)NC(=O)CC2(CCCC2)CC(=O)NCCCCCN1", "note": "[Compound 246]", "IC50": "< 100"}
{"molecule": "C[C@H]1NC(=O)[C@@H](Cc2ccc(NC(=O)[C@@H](NC(=O)Cc3ccccc3)C3CCCCC3)cc2)NC(=O)CC2(CCCC2)CC(=O)NCCCCCNC1=O", "note": "[Compound 342]", "IC50": "< 100"}
{"molecule": "C[C@H]1NC(=O)[C@@H](Cc2ccc(NC(=O)[C@@H](NC(=O)c3cccnc3)C3CCCCC3)cc2)NC(=O)CC2(CCCC2)CC(=O)NCCCCCNC1=O", "note": "[Compound 361]", "IC50": "< 100"}
{"molecule": "O=C1CNC(=O)[C@@H](Cc2ccc(NC(=O)[C@@H](NC(=O)Cc3ccccc3)C3CCCCC3)cc2)NC(=O)CC2(CCCC2)CC(=O)N[C@H](C(=O)O)CCCCN1", "note": "[Compound 316]", "IC50": "< 100"}
{"molecule": "CC(=O)N[C@@H](Cc1ccccc1Cl)C(=O)Nc1ccc(C[C@H]2NC(=O)CC3(CCCC3)CC(=O)N[C@H](C(=O)O)CCCCNC(=O)CNC2=O)cc1", "note": "[Compound 264]", "IC50": "< 100"}
{"molecule": "CNC(=O)N[C@@H](Cc1ccccc1Cl)C(=O)Nc1ccc(C[C@H]2NC(=O)CC3(CCCC3)CC(=O)NCCCCCNC(=O)CNC2=O)cc1", "note": "[Compound 273]", "IC50": "< 100"}
{"molecule": "O=C1CNC(=O)[C@@H](Cc2ccc(NC(=O)[C@H](CC3CCCCC3)NC(=O)Cc3ccccc3)cc2)NC(=O)CC2(CCCC2)CC(=O)NCCCCCN1", "note": "[Compound 293]", "IC50": "< 100"}
{"molecule": "O=C1CNC(=O)[C@@H](Cc2ccc(NC(=O)[C@H](Cc3ccccc3Cl)NC(=O)Cc3ccc(F)cc3)cc2)NC(=O)CC2(CCCC2)CC(=O)NCCCCCN1", "note": "[Compound 305]", "IC50": "< 100"}
{"molecule": "CN(C)C(=O)N[C@@H](Cc1ccccc1Cl)C(=O)Nc1ccc(C[C@H]2NC(=O)CC3(CCCC3)CC(=O)NCCCCCNC(=O)CNC2=O)cc1", "note": "[Compound 274]", "IC50": "< 100"}
{"molecule": "CN1CCCCCNC(=O)CNC(=O)[C@@H](Cc2ccc(NC(=O)[C@@H](NC(=O)Cc3ccccc3)C3CCCCC3)cc2)NC(=O)CC2(CCCC2)CC1=O", "note": "[Compound 332]", "IC50": "< 100"}
